Laboratory results from US6737383B1, “Herbicidal oxadiazolidines” (priority 1999, dated 2004).

Experiments:
[1] = tested on: velvetleaf; test: Test B pre/postemergence velvetleaf; assay type: in vivo, Abutilon theophrasti; conditions: for Velvetleaf plant response rating: scale of 0 to 10 where 0 is no effect and 10 is complete control
How it was run: (§1)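 Herbicidal effect was estimated by eye on a ten-point control scale after plants spent twelve to sixteen days in a greenhouse following soil or foliar treatment. Foliar sprays targeted plants at one to four leaves; all doses were formulated in a non-phytotoxic solvent with surfactant.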

[2] = tested on: winter barley; test: Test E winter barley; assay type: in vivo, Hordeum vulgare; conditions: Preemergence
[3] = tested on: rice; test: Test B flood test rice; assay type: in vivo, Oryza sativa
How it was run: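 Read-out is a visual response score from 0 (no effect) to 10 (complete control), assigned by comparison with untreated controls. Treatment was applied at the 2-leaf stage, and plants stayed in the greenhouse for twelve to sixteen days before scoring.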

[4] = tested on: corn; test: Test B pre/postemergence corn; assay type: in vivo, Zea mays; conditions: for Corn plant response rating: scale of 0 to 10 where 0 is no effect and 10 is complete control
How it was run: as §1

[5] = tested on: winter wheat; test: Test E winter wheat; assay type: in vivo, Triticum aestivum; conditions: Preemergence
[6] = tested on: Italian ryegrass; test: Test E Italian ryegrass; assay type: in vivo, Lolium multiflorum; conditions: Preemergence
[7] = tested on: blackgrass; test: Test E blackgrass; assay type: in vivo, Alopecurus myosuroides; conditions: Preemergence
[8] = tested on: crabgrass; test: Test B pre/postemergence crabgrass; assay type: in vivo, Digitaria sanguinalis; conditions: for Crabgrass plant response rating: scale of 0 to 10 where 0 is no effect and 10 is complete control
How it was run: as §1

[9] = tested on: winter wheat; test: Test E winter wheat; assay type: in vivo, Triticum aestivum; conditions: Postemergence, 0 to 100 scale, 0 is no effect, 100 is complete control
How it was run: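 Each compound, carried in a non-phytotoxic solvent blend including surfactant, was applied (postemergence: over the top of young plants at 1- to 4-leaf stage). Plants stayed in the greenhouse about 21 to 28 days before visual comparison with untreated controls.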

[10] = tested on: wild oat; test: Test E wild oat; assay type: in vivo, Avena fatua; conditions: Preemergence
[11] = tested on: green foxtail; test: Test E green foxtail; assay type: in vivo, Setaria viridis; conditions: Preemergence
[12] = Postemergence, Rate 125 g/ha, scale 0 to 10, 0 is no effect, 10 is complete control
[13] = Preemergence, Rate 62 g/ha, scale 0 to 10 (0 no effect, 10 complete control)
[14] = Rate 500 g/ha, Postemergence, scale 0 to 10, 0 no effect, 10 complete control
[15] = Rate 125 g/ha, 0 to 100 scale (0 no effect, 100 complete control)
[16] = Rate 500 g/ha, 0 to 100 scale (0 no effect, 100 complete control)

CCC(CC)n1c(=O)on(C(=O)N(c2ccccc2)C(C)C)c1=O [Compound 354]
Plant response rating, Velvetleaf [1, 12]: 0
Plant response rating, Velvetleaf [1, 13]: 1
Velvetleaf plant response rating (0 to 10 scale) ([1]; Preemergence, Rate 125 g/ha): 5
Velvetleaf plant response rating ([1]; Preemergence, Rate 250 g/ha): 6
Velvetleaf plant response rating ([1]; Preemergence, Rate 500 g/ha): 7
Velvetleaf plant response rating ([1]; Rate 62 g/ha, Postemergence): 0
Plant response rating, Velvetleaf [1, 14]: 2
Plant response rating, Barley (winter) [2, 15]: 20
Plant response rating, Barley (winter) ([2]; Rate 250 g/ha, 0 to 100 scale, 0 no effect, 100 complete control): 30
Plant response rating, Barley (winter) [2, 16]: 40
Plant response rating, Rice ([3]; Postemergence (flood test), Rate 125 g/ha, scale 0 to 10, 0 is no effect, 10 is complete control): 0
Rice plant response rating ([3]; Rate 62 g/ha, Postemergence (flood test species), scale of 0 to 10 where 0 is no effect and 10 is complete control): 0
Plant response rating, Rice (0 to 10 scale, 0 is no effect, 10 is complete control) ([3]; Rate 62 g/ha, flood test species, Pre-emergence, visual evaluation after twelve to sixteen days): 0
Rice plant response rating ([3]; Rate 125 g/ha, Pre-emergence, flood test species, scale 0 to 10 where 0 is no effect and 10 is complete control): 0
Rice plant response rating ([3]; Rate 250 g/ha, Pre-emergence, flood-test species, scale 0 to 10, 0 is no effect, 10 is complete control): 0
Plant response rating, Rice ([3]; Rate 500 g/ha, listed under Postemergence (flood test species), scale 0 to 10, 0 no effect, 10 complete control): 2
Rice plant response rating ([3]; Rate 500 g/ha, Pre-emergence, flood test species, scale 0 to 10 (0 no effect, 10 complete control)): 0
Plant response rating, Corn [4, 12]: 0
Plant response rating, Corn [4, 13]: 0
Corn plant response rating (0 to 10 scale) ([4]; Preemergence, Rate 125 g/ha): 0
Corn plant response rating ([4]; Preemergence, Rate 250 g/ha): 3
Corn plant response rating ([4]; Preemergence, Rate 500 g/ha): 6
Corn plant response rating ([4]; Rate 62 g/ha, Postemergence): 0
Plant response rating, Corn [4, 14]: 0
Plant response rating, Wheat (winter) [5, 15]: 30
Plant response rating, Wheat (winter) ([5]; Rate 250 g/ha, 0 to 100 scale): 50
Plant response rating, Wheat (winter) [5, 16]: 60
Plant response rating, I. Ryegrass [6, 15]: 50
Plant response rating, I. Ryegrass ([6]; Rate 250 g/ha, 0 to 100 scale): 60
Plant response rating, I. Ryegrass [6, 16]: 90
Plant response rating, Blackgrass [7, 15]: 50
Plant response rating, Blackgrass ([7]; Rate 250 g/ha, 0 to 100 scale): 55
Plant response rating, Blackgrass [7, 16]: 30
Plant response rating, Crabgrass [8, 12]: 2
Plant response rating, Crabgrass [8, 13]: 9
Crabgrass plant response rating (0 to 10 scale) ([8]; Preemergence, Rate 125 g/ha): 9
Crabgrass plant response rating ([8]; Preemergence, Rate 250 g/ha): 9
Crabgrass plant response rating ([8]; Preemergence, Rate 500 g/ha): 10
Crabgrass plant response rating ([8]; Rate 62 g/ha, Postemergence): 0
Plant response rating, Crabgrass [8, 14]: 3
Plant response rating, Wheat (winter) ([9]; Rate 125 g/ha): 30
Plant response rating, Wheat (winter) ([9]; Rate 250 g/ha): 40
Plant response rating, Wheat (winter) ([9]; Rate 500 g/ha): 50
Plant response rating, Wild oat [10, 15]: 0
Plant response rating, Wild oat ([10]; Rate 250 g/ha, 0 to 100 scale): 30
Plant response rating, Wild oat [10, 16]: 40
Plant response rating, Green foxtail [11, 15]: 85
Plant response rating, Green foxtail ([11]; Rate 250 g/ha, 0 to 100 scale): 80
Plant response rating, Green foxtail [11, 16]: 100
